Key:
[1] = test system: CD44high/CD24low population of MDA-MB-231 cells; experiment: CD44+/CD24- flow cytometry; format: cell-based, human; conditions: 50 μM, 24 hours, control 80.8%
Protocol: MDA-MB-231 cancer cells (1.5×10^6 cells) were cultured in a 6-well plate for 24 hours and treated with DMSO as a control group or dihydroconiferyl ferulate (50 μM) for 24 hours. Thereafter, the cells isolated into single cells were incubated with an anti-human CD44 antibody (FITC-conjugated) and an anti-human CD24 antibody (PE-conjugated) (BD) at 4° C. for 45 minutes. After washing with 1×PBS, CD44^+/CD24^− cells were examined using a flow cytometer Accuri C6 machine (BD San Jose, CA, USA).
CD44^+/CD24^−, a representative marker of breast cancer stem cells, was associated with stem cell-like activity in breast cancer, and since CD44^+/CD24^− MDA-MB-231 cells show higher tumorigenesis and metastasis than CD44−/CD24^+ MDA-MB-231 cells, MDA-MB-231 cells were treated with dihydroconiferyl ferulate, and then changes in the CD44^high/CD24^low population were measured, and the experimental method was described in Experimental Example 5.

[2] = test system: MCF-7 cells; experiment: Cell proliferation / viability assay (EZ-Cytox); format: cell-based; conditions: Homo sapiens, MCF7, A of FIG. 6, read-out: IC50 (drug concentration required for 50% growth reduction in a survival curve)
Protocol: Human breast cancer cell lines, MDA-MB-231 and MCF-7 cells, were purchased from the Korea Cell Line Bank and cultured in an incubator with an atmospheric environment of 5% CO2 and a Dulbecco's Modified Eagle's Medium (DMEM) containing 10% fetal bovine serum (Corning, Glendale, AZ, USA) and 1% penicillin/streptomycin.
MCF-7 cells (1.5×10^6 cells/plate) and MDA-MB-231 cells (1.0×10^6 cells/plate) were seeded into a 96-well plate for 24 hours and incubated with dihydroconiferyl ferulate (0, 10, 25, 50, 75, 100, 150, and 200 μM). Thereafter, cell viability was examined using the EZ-Cytox Plus Kit (DoGenBio, Seoul, Korea) according to the manufacturer's protocol. OD450 values were measured using a VERSAmax ELISA reader (Molecular Device, San Jose, CA, USA).
Breast cancer cells MCF-7 and MDA-MB-231 were treated with dihydroconiferyl ferulate, a compound purified from the leaves of Dendropanax morbiferus H.Lev at various concentrations to test an antiproliferative effect, and an experimental method was described in Experimental Example 3.

For `COc1cc(/C=C/C(=O)OCCCc2ccc(O)c(OC)c2)ccc1O` [dihydroconiferyl ferulate], the CD44high/CD24low population [1] was 34.0% and the IC50 [2] was 112 µM.
